Reference: patent US20250186627A1, “RADIOLABELED COMPOUNDS TARGETING THE PROSTATE-SPECIFIC MEMBRANE ANTIGEN” (PROVINCIAL HEALTH SERVICES AUTHORITY, priority 2022, published 2025)
*1 amine or outer side, *2 acyl side, *3 side chain or, on linkers, in order; H or OH if unused. Where a SMILES comes first, the peptide text is derived from it. [ ]: non-standard residue; d: D form. The star is where a group is joined. AadUreaLys(Nε) = O=C(O)CCC[C@H](NC(=O)N[C@@H](CCCCN*)C(=O)O)C(=O)O; DOTA = O=C(O)CN1CCN(CC(=O)O)CCN(CC(=O)*)CCN(CC(=O)O)CC1; Ala(9-anthryl) = N[C@@H](Cc1c2ccccc2cc2ccccc12)C(=O)O; Butanoyl(4-(4-MeO-phenyl)) = COc1ccc(CCCC(=O)*)cc1; X1 = O=C(C1CCC(CN[*:1])CC1)[*:2]

How the values were obtained:
[1] = target: T1, PSMA (Homo sapiens, UniProt Q04609); assay: In vitro PSMA competitive binding assay, LNCaP cells, [18F]DCFPyL radioligand; conditions: [18F]DCFPyL 0.1 nM, read-out: PSMA binding affinity (Ki)
T1 construct: endogenous in cells; host or cells: LNCaP cells
T1 sequence (Q04609 whole entry): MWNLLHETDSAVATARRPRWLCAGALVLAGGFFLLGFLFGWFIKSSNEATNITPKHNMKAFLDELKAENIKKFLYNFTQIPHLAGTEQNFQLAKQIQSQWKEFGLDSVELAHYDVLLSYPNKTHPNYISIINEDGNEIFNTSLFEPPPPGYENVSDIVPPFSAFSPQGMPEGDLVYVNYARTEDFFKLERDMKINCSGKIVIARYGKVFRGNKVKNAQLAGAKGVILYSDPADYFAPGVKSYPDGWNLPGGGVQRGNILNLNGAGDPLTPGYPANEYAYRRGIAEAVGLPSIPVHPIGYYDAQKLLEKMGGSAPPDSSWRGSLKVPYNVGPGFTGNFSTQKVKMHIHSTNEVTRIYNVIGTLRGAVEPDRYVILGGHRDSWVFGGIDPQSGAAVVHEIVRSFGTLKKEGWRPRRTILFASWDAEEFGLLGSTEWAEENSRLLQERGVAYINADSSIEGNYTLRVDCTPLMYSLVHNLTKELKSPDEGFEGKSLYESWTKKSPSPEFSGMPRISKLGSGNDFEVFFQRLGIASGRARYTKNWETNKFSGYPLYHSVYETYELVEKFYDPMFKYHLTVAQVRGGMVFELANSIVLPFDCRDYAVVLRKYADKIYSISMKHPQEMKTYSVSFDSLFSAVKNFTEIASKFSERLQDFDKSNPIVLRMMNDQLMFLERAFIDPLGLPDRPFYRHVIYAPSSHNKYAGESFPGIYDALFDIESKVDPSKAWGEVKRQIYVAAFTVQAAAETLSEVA
Protocol: Inhibition constants (Ki) to PSMA were measured by in vitro competition binding assays using [^18F]DCFPyL as the radioligand. LNCaP cells which were plated onto a 24-well poly-D-lysine coated plate for 48 h (400,000/well). Growth medium was removed and replaced with HEPES buffered saline (50 mM HEPES, pH 7.5, 0.9% sodium chloride). After 1 h, [^18F]DCFPyL (0.1 nM) was added to each well (in triplicate) containing varied concentrations ([…]) of tested compounds The assay mixtures were incubated for 1 h at 37° C. with gentle agitation followed by two washes with cold HEPES buffered saline. A trypsin solution (0.25%, 400 μL) was then added to each well to harvest the cells. Radioactivity was measured by gamma counting and Ki values calculated using the ‘one site—fit Ki’ built-in model in Prism 8 (GraphPad).

[2] = target: T2, Human serum albumin (Homo sapiens, UniProt P02768); assay: Human serum albumin binding assay (Transil HSA binding kit); conditions: read-out: Human albumin binding affinity (Kd)
T2 construct: purchased Sovicell
T2 sequence (P02768 25-609): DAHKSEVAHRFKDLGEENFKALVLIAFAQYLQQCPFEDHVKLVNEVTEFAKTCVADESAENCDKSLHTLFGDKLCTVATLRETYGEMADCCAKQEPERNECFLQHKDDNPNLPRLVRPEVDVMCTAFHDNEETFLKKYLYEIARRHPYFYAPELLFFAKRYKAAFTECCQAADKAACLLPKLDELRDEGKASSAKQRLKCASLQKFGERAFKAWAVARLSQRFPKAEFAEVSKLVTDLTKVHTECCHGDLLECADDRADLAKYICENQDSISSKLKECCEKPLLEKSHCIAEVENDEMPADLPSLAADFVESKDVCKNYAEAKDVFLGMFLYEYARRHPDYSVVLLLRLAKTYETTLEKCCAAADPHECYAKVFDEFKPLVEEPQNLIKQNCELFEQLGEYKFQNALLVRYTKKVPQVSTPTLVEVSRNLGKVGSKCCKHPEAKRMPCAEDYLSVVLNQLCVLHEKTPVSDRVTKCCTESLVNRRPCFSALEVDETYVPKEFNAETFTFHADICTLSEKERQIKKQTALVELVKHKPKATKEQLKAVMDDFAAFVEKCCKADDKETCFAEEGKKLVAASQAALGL
Protocol: Human serum albumin binding assay was performed using Transil HSA binding kit (Sovicell) according to manufacturer's recommended procedures.

Ki [1]	Kd [2]	SMILES
0.12 ± 0.02 nM	64900 ± 2200 nM	COc1ccc(CCCC(=O)NCC(=O)N[C@@H](CCCCNC(=O)CN2CCN(CC(=O)O)CCN(CC(=O)O)CCN(CC(=O)O)CC2)C(=O)NCC(=O)NCC2CCC(C(=O)N[C@@H](Cc3c4ccccc4cc4ccccc34)C(=O)NCCCC[C@H](NC(=O)N[C@@H](CCCC(=O)O)C(=O)O)C(=O)O)CC2)cc1 (some centres unmarked) [CCZ02009] ({Butanoyl(4-(4-MeO-phenyl))}-GK(DOTA)G[X1][Ala(9-anthryl)]-{AadUreaLys(Nε)})
1.09 ± 0.19 nM		COc1ccc(CCCC(=O)NCC(=O)N[C@@H](CCCCNC(=O)CN2CCN(CC(=O)O)CCN(CC(=O)O)CCN(CC(=O)O)CC2)C(=O)NCC(=O)NCC(=O)NCC2CCC(C(=O)N[C@@H](Cc3c4ccccc4cc4ccccc34)C(=O)NCCCC[C@H](NC(=O)N[C@@H](CCCC(=O)O)C(=O)O)C(=O)O)CC2)cc1 (some centres unmarked) [CCZ02060] ({Butanoyl(4-(4-MeO-phenyl))}-GK(DOTA)GG[X1][Ala(9-anthryl)]-{AadUreaLys(Nε)})
1.53 ± 0.33 nM	70100 ± 3200 nM	COc1ccc(CCCC(=O)NCC(=O)N[C@@H](CCCCNC(=O)CN2CCN(CC(=O)O)CCN(CC(=O)O)CCN(CC(=O)O)CC2)C(=O)NCC2CCC(C(=O)N[C@@H](Cc3c4ccccc4cc4ccccc34)C(=O)NCCCC[C@H](NC(=O)N[C@@H](CCCC(=O)O)C(=O)O)C(=O)O)CC2)cc1 (some centres unmarked) [HTK03170, reference compound]
